Values joined by “and” are separate entries in the source; they are usually repeats but may differ in a detail not shown here. Identical values can stand only once.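 Interpolation was linear, between the two tested concentrations surrounding the appropriate level; five concentrations were tested over 48 hours in 96-well plates. GI50 is the concentration that inhibits growth by half. TGI: total growth inhibition.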

Among the test systems are UACC-62 melanoma; MOLT-4 leukemia; IGROV1 ovarian; MCF7 breast; OVCAR-5 ovarian; NCI-H226 lung; SK-MEL-2 melanoma; SW-620 colon; EKVX NSCLC; HL-60(TB) leukemia.
Holding throughout (test): growth of human tumour cells (NCI), 48 h

For the molecule `CC(C)C[C@H](NC(=O)[C@H](Cc1ccccc1)n1ccc(N2CCCCC2)cc1=O)B(O)O`, the GI50 in the test on UACC-62 melanoma is 0.458 µM; in the test on MOLT-4 leukemia, 0.308 µM; in the test with IGROV1 ovarian, 5.1 µM; in the test on MCF7 breast, 0.392 µM; in the test with OVCAR-5 ovarian, 3.15 µM; with NCI-H226 lung, 0.188 µM. For the same molecule, the GI50 in the test on SK-MEL-2 melanoma is 0.46 µM; with SW-620 colon, 0.376 µM. Also, the TGI is 2.44 µM with UACC-62 melanoma; more than 100 µM with MOLT-4 leukemia; more than 100 µM in the test with IGROV1 ovarian; more than 100 µM in the test on MCF7 breast; 97.3 µM in the test with OVCAR-5 ovarian; 0.423 µM in the test on NCI-H226 lung. Further, the TGI was 4.56 µM in the test on SK-MEL-2 melanoma and more than 100 µM with SW-620 colon.
For `COc1nc2c(OC)cccc2c(OC)c1C=O`, the TGI with UACC-62 melanoma, in the test on MOLT-4 leukemia, in the test on IGROV1 ovarian, with EKVX NSCLC, in the test with NCI-H226 lung and with SK-MEL-2 melanoma was more than 100 µM throughout. Moreover, the TGI with SW-620 colon and in the test on HL-60(TB) leukemia was more than 100 µM each time.
For `CN/N=C(/Cc1occc(=O)c1O)C(=O)Nc1ccc(C)c(C)c1`, the TGI in the test with UACC-62 melanoma, in the test on MOLT-4 leukemia, with IGROV1 ovarian, with OVCAR-5 ovarian, in the test on EKVX NSCLC and with NCI-H226 lung was more than 100 µM in each case. For the same molecule, the TGI with SK-MEL-2 melanoma, in the test with SW-620 colon and in the test with HL-60(TB) leukemia was more than 100 µM in each case.
Turning to `COC(=O)C1(C)C=C(Nc2ccccc2)C(=O)N1c1ccccc1` (stereo not drawn), the TGI with UACC-62 melanoma, with MOLT-4 leukemia, in the test with IGROV1 ovarian, in the test with OVCAR-5 ovarian, in the test with EKVX NSCLC and in the test on NCI-H226 lung was more than 100 µM each time. Further, the TGI in the test on SK-MEL-2 melanoma, with SW-620 colon and in the test with HL-60(TB) leukemia was more than 100 µM each time.
Turning to `COc1ccc(C(=O)/C=C/c2ccc(O)c(O)c2F)c(OC)c1`, the TGI was 16.8 µM and 21.9 µM in the test on UACC-62 melanoma; 75 µM and 11.6 µM with MOLT-4 leukemia; 75 µM and > 100 µM with IGROV1 ovarian; 9.83 µM and 13.1 µM with MCF7 breast; 23.3 µM and 34.8 µM with OVCAR-5 ovarian; 30.3 µM and 28.9 µM in the test on EKVX NSCLC. Moreover, the TGI with NCI-H226 lung was 37.1 µM and 46.3 µM; in the test on SK-MEL-2 melanoma it was 13.4 µM and 13.6 µM; in the test with SW-620 colon, 75 µM and 25.5 µM. Also, the GI50 with MOLT-4 leukemia was 0.259 µM; in the test on IGROV1 ovarian it was 12.8 µM; with MCF7 breast, 0.334 µM; with OVCAR-5 ovarian, 15.3 µM; in the test on EKVX NSCLC, 10.9 µM.
Take `CC(C)(C)[OH+][O-].[O-]c1ccc(Cl)cc1C=Nc1ccc(Cl)cc1[O-].[O]=[V]`: the GI50 was 10.7 µM in the test with UACC-62 melanoma; 17.5 µM with MOLT-4 leukemia; 0.542 µM with IGROV1 ovarian; 11.4 µM with MCF7 breast; 18.4 µM in the test with OVCAR-5 ovarian; 2.84 µM in the test on EKVX NSCLC. Also, the results for the GI50 in the test with SK-MEL-2 melanoma, with SW-620 colon and in the test on HL-60(TB) leukemia were 11.5 µM, 19.6 µM and 24.7 µM, respectively. Also, the TGI in the test with UACC-62 melanoma is 37.5 µM; in the test with MOLT-4 leukemia, more than 100 µM; in the test with IGROV1 ovarian it was 14.2 µM; with MCF7 breast, 30 µM; with OVCAR-5 ovarian it was 47.3 µM; in the test on EKVX NSCLC it was 18.1 µM. Further, the TGI in the test with SK-MEL-2 melanoma is 28.2 µM; in the test with SW-620 colon it was 41.7 µM; with HL-60(TB) leukemia, more than 100 µM.
Turning to `C/C(CN1C(=O)c2ccccc2C1=O)=N\NS(=O)(=O)c1cccc([N+](=O)[O-])c1`, the TGI with UACC-62 melanoma, in the test on MOLT-4 leukemia, with IGROV1 ovarian, with OVCAR-5 ovarian, in the test with EKVX NSCLC and in the test on NCI-H226 lung was more than 100 µM in each case. Besides, the TGI in the test on SK-MEL-2 melanoma, in the test on SW-620 colon and in the test with HL-60(TB) leukemia was more than 100 µM throughout.
For `CCOC(=N)CC(=O)Nc1ccc(Cl)cc1`, the TGI in the test on UACC-62 melanoma, in the test on MOLT-4 leukemia, in the test on IGROV1 ovarian, in the test with OVCAR-5 ovarian, with EKVX NSCLC and in the test on NCI-H226 lung was more than 100 µM each time. Also, the TGI in the test with SK-MEL-2 melanoma, in the test on SW-620 colon and in the test with HL-60(TB) leukemia was more than 100 µM each time.
For `COc1ccc(-c2ccc(C3CC(c4ccc(O)cc4)=NN3)o2)c([N+](=O)[O-])c1` (stereo not drawn), the GI50 in the test on UACC-62 melanoma is 33.1 µM; in the test with MOLT-4 leukemia, 5.14 µM; with IGROV1 ovarian it was 84.9 µM; with MCF7 breast it was 24.4 µM; in the test on OVCAR-5 ovarian, more than 100 µM; with EKVX NSCLC, 43 µM. For the same molecule, the GI50 in the test with NCI-H226 lung was 36.4 µM; in the test with SW-620 colon, 37.3 µM; in the test with HL-60(TB) leukemia it was 13 µM. Moreover, the TGI is more than 100 µM with UACC-62 melanoma; 29.9 µM in the test with MOLT-4 leukemia; more than 100 µM in the test with IGROV1 ovarian; 74.4 µM with MCF7 breast; more than 100 µM with OVCAR-5 ovarian; more than 100 µM in the test on EKVX NSCLC. In addition, the TGI was more than 100 µM in the test with NCI-H226 lung, more than 100 µM in the test with SW-620 colon and 38.8 µM with HL-60(TB) leukemia.
As to `O=[N+]([O-])c1cnc(Sc2ccncn2)c([N+](=O)[O-])c1`, the GI50 is 10.5 µM in the test on UACC-62 melanoma; 3.24 µM with MOLT-4 leukemia; 16.7 µM in the test with IGROV1 ovarian; 5.96 µM in the test with MCF7 breast; 16.3 µM with OVCAR-5 ovarian; 16.8 µM with SK-MEL-2 melanoma. The figures for the GI50 with SW-620 colon and in the test on HL-60(TB) leukemia were 2.19 µM and 23.1 µM, respectively. Besides, the TGI in the test on UACC-62 melanoma stood at 22.3 µM; with MOLT-4 leukemia it was 33.1 µM; in the test with IGROV1 ovarian it was 31.4 µM; in the test with MCF7 breast it was 24.9 µM; in the test with OVCAR-5 ovarian it was 31.7 µM; with SK-MEL-2 melanoma, 32.9 µM. Also, the figures for the TGI with SW-620 colon and with HL-60(TB) leukemia were 4.45 µM and 62.9 µM, respectively.
For `O=C(Nc1ccc(-c2nc3cc4ccccc4cc3[nH]2)cc1)c1cccc(Br)c1`, the GI50 with UACC-62 melanoma is 15.8 µM; with MOLT-4 leukemia, 27.6 µM; with IGROV1 ovarian, 15 µM; in the test with MCF7 breast, 1.97 µM; in the test with OVCAR-5 ovarian it was 22.6 µM; in the test with NCI-H226 lung, 21.4 µM. Also, the GI50 with SW-620 colon is 3.09 µM; in the test on HL-60(TB) leukemia it was 16.6 µM. In addition, the TGI in the test with UACC-62 melanoma was 30.5 µM; with MOLT-4 leukemia, more than 100 µM; in the test with IGROV1 ovarian it was 42.2 µM; in the test on MCF7 breast, 10.4 µM; with OVCAR-5 ovarian, 68.3 µM; in the test with NCI-H226 lung, 50.2 µM. Also, the TGI with SW-620 colon came to 12.8 µM; with HL-60(TB) leukemia it was 48.4 µM.
For `O=C(O)c1ccc(S(=O)(=O)c2ccccc2)c([N+](=O)[O-])c1`, the TGI with UACC-62 melanoma, with MOLT-4 leukemia, in the test on IGROV1 ovarian, in the test with OVCAR-5 ovarian, in the test on EKVX NSCLC and in the test on NCI-H226 lung was more than 100 µM in each case. The TGI in the test on SK-MEL-2 melanoma, with SW-620 colon and in the test with HL-60(TB) leukemia was more than 100 µM in each case.
For the molecule `O=C(Cc1nc2ccccc2s1)C(=O)Nc1ccc(Cl)cc1`, the TGI in the test with UACC-62 melanoma, with MOLT-4 leukemia, with IGROV1 ovarian, in the test on OVCAR-5 ovarian, in the test with EKVX NSCLC and with NCI-H226 lung was more than 100 µM throughout. Moreover, the TGI with SK-MEL-2 melanoma, in the test on SW-620 colon and in the test on HL-60(TB) leukemia was more than 100 µM each time.
On to `CCCCCCCCCCCCCS(=O)(=O)O`, for which the TGI in the test on UACC-62 melanoma, in the test on IGROV1 ovarian, in the test on OVCAR-5 ovarian, in the test on EKVX NSCLC, in the test on NCI-H226 lung and in the test on SK-MEL-2 melanoma was more than 100 µM in each case. Further, the TGI with SW-620 colon and in the test with HL-60(TB) leukemia was more than 100 µM each time.
Turning to `O=C(Nc1ccc(S(=O)(=O)Nc2nccs2)cc1)c1cccnc1Nc1cccc(Cl)c1`, the GI50 with UACC-62 melanoma was 6.62 µM; with MOLT-4 leukemia, 12.5 µM; in the test with IGROV1 ovarian, 15.4 µM; in the test with MCF7 breast it was 12.2 µM; in the test with OVCAR-5 ovarian, 17.6 µM; in the test with EKVX NSCLC it was 18.3 µM. In addition, the GI50 with NCI-H226 lung was 21.9 µM; with SW-620 colon it was 14.2 µM; in the test on HL-60(TB) leukemia it was 24.8 µM. Besides, the TGI in the test on UACC-62 melanoma was 20.3 µM; in the test on MOLT-4 leukemia, 88.9 µM; with IGROV1 ovarian, 53 µM; in the test on MCF7 breast it was 32.5 µM; in the test on OVCAR-5 ovarian, 44.8 µM; with EKVX NSCLC, more than 100 µM. In addition, the TGI with NCI-H226 lung turned out to be 98.7 µM; with SW-620 colon, 28.7 µM; with HL-60(TB) leukemia, 78.9 µM.
As to `OCCN(CCO)N=Nc1ccc(-c2nc3ccccc3[nH]2)cc1`, the GI50 with UACC-62 melanoma was 35.2 µM; with MOLT-4 leukemia, 14.4 µM; with IGROV1 ovarian, 87.4 µM; with OVCAR-5 ovarian, more than 100 µM; in the test with EKVX NSCLC it was 17.1 µM; in the test with NCI-H226 lung, more than 100 µM. Also, the GI50 is 41.2 µM in the test on SK-MEL-2 melanoma, 18.9 µM in the test on SW-620 colon and 10.8 µM with HL-60(TB) leukemia. Besides, the TGI in the test on UACC-62 melanoma was more than 100 µM; in the test on MOLT-4 leukemia, 38.5 µM; in the test on IGROV1 ovarian, more than 100 µM; in the test with OVCAR-5 ovarian, more than 100 µM; in the test on EKVX NSCLC, 37.5 µM; in the test on NCI-H226 lung, more than 100 µM. In addition, the TGI was more than 100 µM with SK-MEL-2 melanoma, 38.4 µM with SW-620 colon and 32.1 µM with HL-60(TB) leukemia.
As for `CCN(CC)CCCN(c1cc(OC)cc2nccnc12)S(=O)(=O)c1ccc(C)cc1`, the TGI in the test on UACC-62 melanoma, in the test with MOLT-4 leukemia, in the test with IGROV1 ovarian, in the test with OVCAR-5 ovarian, with EKVX NSCLC and with NCI-H226 lung was more than 100 µM in each case. Further, the TGI in the test with SK-MEL-2 melanoma, in the test on SW-620 colon and in the test with HL-60(TB) leukemia was more than 100 µM each time.

The values are drawn from PubChem BioAssay (NCI).
